From patent US20080057003A1, “Powder inhaler formulations” (priority 2001, published 2008)

Experiment: Triboelectrification in a cyclone separator (specific charge, mass transport, adhesion)
Assay type: physicochemical
Conditions: for specific charge: untreated micronized drug, stainless steel cyclone, FIG. 1 / FIG. 3
Source text: In the processing of micronized or microfine active substances for DPI, it is common to subject the powder to a sieving process in order to remove large agglomerates prior to mixing with the carrier particles used in the DPI formulation. […] The experimental method for electrostatic charge determinations that was applied is outlined in more detail below.
Electrostatic charge of powder samples was investigated using a cyclone apparatus linked to a Faraday well and force compensation load cell to measure charge and mass simultaneously. 1 g samples of powder were transported through the apparatus using dry compressed air (rh<10%) at 8 m s^−1 for triboelectrification against a stainless steel surface.
The charge Q (nC) and mass M (g) values were used to calculate the specific charge Q/M (nC g^−1) at the completion of each experimental run. The results are mean values with coefficient of variation values for 5 replicates. The mass of material entering the Faraday well was used to quantify the mass transport through the apparatus and this was used to assess the flow and adhesion characteristics of the powder. In addition, the amount of material adhered to the cyclone wall was estimated visually and rated on a scale from 0 (no adhesion) to 3 (extensive adhesion).
Approximately 10 g of drug powder samples were placed in a 60M (250 μm) sieve and agitated using a sieve shaker (Glen Creston, 47-300) with an oscillation amplitude regulator at setting 20 for 20 minutes. Sieved powder samples were stored in glass jars and then kept in a desiccator for a week prior to charge investigations in the cyclone.

[1] = sieved samples, tiotropium treated with sorbitan derivative at 600 mg l^−1, or untreated, cyclone

Row | SMILES | specific charge (sieved) | specific charge (unsieved) | Mean charge (cv %) [1] | Mean mass transfer (cv %) [1]
1 | CC(Cc1ccc(O)cc1)NCC(O)c1cc(O)cc(O)c1 (stereo not drawn) [fenoterol, Fenoterol] | −92 nC g^−1 | −40 nC g^−1 | – | –
2 | C[N+]1(C)[C@@H]2C[C@@H](OC(=O)C(O)(c3cccs3)c3cccs3)C[C@H]1[C@@H]1O[C@@H]12 [tiotropium, Tiotropium] | +201 nC g^−1 | +52 nC g^−1 | +201 (3.2) nC g^−1 | 2.5 (8.0) %
